Results from PubChem BioAssay AID1897 (NMMLSC, 2009).
Activity calls are given as the source filed them. No rule for the calls is given here.

Biological target: Mitogen-activated protein kinase kinase kinase 2 (Homo sapiens) + Dual specificity mitogen-activated protein kinase kinase 5 (Homo sapiens) (UniProt Q9Y2U5+Q13163)
Experiment: inhibitors of MEK5 binding to MEKK2, dose response, biochemical, bead multiplex flow cytometry, wildtype (AID 1897)
Details: MEK5-MEKK2 PB1 binding; for Ki: measured here: Ki from binding competition

Chain of Mitogen-activated protein kinase kinase kinase 2 (Homo sapiens) + Dual specificity mitogen-activated protein kinase kinase 5 (Homo sapiens) (Q13163 whole entry, looked up): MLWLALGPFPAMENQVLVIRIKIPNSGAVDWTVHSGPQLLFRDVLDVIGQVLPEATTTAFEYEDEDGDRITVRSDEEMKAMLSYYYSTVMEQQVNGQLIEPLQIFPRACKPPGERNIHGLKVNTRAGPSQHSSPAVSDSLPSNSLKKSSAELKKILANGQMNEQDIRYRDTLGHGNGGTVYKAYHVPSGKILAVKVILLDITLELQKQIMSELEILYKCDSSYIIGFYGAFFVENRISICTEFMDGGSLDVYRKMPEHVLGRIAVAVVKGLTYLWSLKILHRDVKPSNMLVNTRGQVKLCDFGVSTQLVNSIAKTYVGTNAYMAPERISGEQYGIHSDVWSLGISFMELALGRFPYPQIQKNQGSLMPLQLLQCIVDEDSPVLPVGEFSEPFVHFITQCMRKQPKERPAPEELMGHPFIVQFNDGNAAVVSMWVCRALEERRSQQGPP
Chain of Mitogen-activated protein kinase kinase kinase 2 (Homo sapiens) + Dual specificity mitogen-activated protein kinase kinase 5 (Homo sapiens) (Q9Y2U5 whole entry, looked up): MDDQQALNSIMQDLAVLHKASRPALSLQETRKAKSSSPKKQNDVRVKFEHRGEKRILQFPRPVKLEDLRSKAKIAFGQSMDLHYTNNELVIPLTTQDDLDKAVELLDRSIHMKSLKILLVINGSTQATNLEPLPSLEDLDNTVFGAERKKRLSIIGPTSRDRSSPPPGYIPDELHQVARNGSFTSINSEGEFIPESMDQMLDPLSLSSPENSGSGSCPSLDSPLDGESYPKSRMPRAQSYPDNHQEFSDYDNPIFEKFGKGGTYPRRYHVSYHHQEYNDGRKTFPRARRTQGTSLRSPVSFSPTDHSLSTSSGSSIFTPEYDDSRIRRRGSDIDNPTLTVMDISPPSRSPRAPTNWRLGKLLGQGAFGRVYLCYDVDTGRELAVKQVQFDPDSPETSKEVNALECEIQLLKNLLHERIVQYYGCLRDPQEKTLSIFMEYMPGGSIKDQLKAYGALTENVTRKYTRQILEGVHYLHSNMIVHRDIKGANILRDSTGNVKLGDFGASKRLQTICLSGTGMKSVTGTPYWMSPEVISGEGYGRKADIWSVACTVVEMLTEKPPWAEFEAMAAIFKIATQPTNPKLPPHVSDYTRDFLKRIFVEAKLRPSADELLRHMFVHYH

EC50	Ki [µM]	Compound
0.52 µM	–	C#CCOCCOCCOCCNc1nc(N2CCN(C(=O)[C@H]([C@@H](C)CC)n3cc([C@@H](N)CO)nn3)CC2)nc(N2CCN(C(=O)[C@H](Cc3cc4ccccc4[nH]3)n3cc([C@@H](N)Cc4ccc(O)cc4)nn3)CC2)n1
> 30 µM (inactive)	–	CCn1cc(C(=O)O)c(=O)c2cc(F)c(N3CCN(C(=S)NC(=O)c4ccc(Br)cc4)CC3)cc21
> 30 µM (inactive)	–	CCN(CC)CCOC(=O)c1ccc(N/C=C(/C#N)c2nc(-c3ccc(OC)cc3)cs2)cc1
> 30 µM (inactive)	–	CCN1CCN(Cc2ccc(NC(=O)c3ccc(C)c(NC(=O)C(=O)c4c[nH]c5ccccc45)c3)cc2C(F)(F)F)CC1
3.78 µM	3.39	Nc1ccc(N)c(C(=O)O)c1
3.02 µM	2.7	Cc1cc2ccccc2n1CCNC(=O)c1ccccc1
1.48 µM	1.33	COc1ccc(-n2nc3c(N)n[nH]c3cc2=O)cc1
> 30 µM (inactive)	–	NC(=O)CSc1nnc(Cc2ccc3c(c2)OCO3)o1
> 30 µM (inactive)	–	Nc1ccc2nc(-c3ccc(-c4nc5ccc(N)cc5[nH]4)cc3)[nH]c2c1
> 30 µM (inactive)	–	Cc1sc(NC(=O)c2ccccc2)c(C(c2ccccn2)N2CCN(CCO)CC2)c1C (configuration not stated)
> 30 µM (inactive)	–	OCCCCNCc1ccc(OCc2ccc(Cl)cc2Cl)cc1
4.13 µM	3.69	Cc1cc2cc(CNC(=O)NC3CCCCC3)ccc2[nH]1
> 30 µM (inactive)	–	CCN1/C(=C/C=C/C=C/C=C/c2sc3ccccc3[n+]2CC)Sc2ccccc21
> 30 µM (inactive)	–	COC(=O)c1c(C)oc(C)c1S(=O)(=O)N(Cc1ccccc1)C(C)C
6.61 µM	–	CCN1CCN(CCNC(=O)c2ccc(/C=C3/Sc4ccccc4N(Cc4cccc(C)c4)C3=O)cc2)CC1
> 30 µM (inactive)	–	CN(C)CCCN(C(=O)c1ccc2c(c1)CCCC2)c1nc2ccc(Cl)cc2s1
> 30 µM (inactive)	–	C#CCOCCOCCOCCNc1nc(N2CCN(C(=O)[C@H]([C@@H](C)CC)n3cc([C@@H](N)CO)nn3)CC2)nc(N2CCN(C(=O)[C@H](Cc3cc4ccccc4[nH]3)n3cc([C@@H](N)C(C)CC)nn3)CC2)n1 (some centres not stated)
> 30 µM (inactive)	–	C#CCOCCOCCOCCNc1nc(N2CCN(C(=O)[C@H](Cc3ccc(O)cc3)n3cc([C@@H](N)C(C)CC)nn3)CC2)nc(N2CCN(C(=O)[C@H](Cc3cc4ccccc4[nH]3)n3cc([C@@H](N)CC(C)C)nn3)CC2)n1 (some centres not stated)
19.2 µM	–	NC(N)=N/N=C/c1ccc(OCc2ccccc2Cl)cc1
23.6 µM	21.1	Nc1ccc(Nc2ccccc2N)cc1
1.55 µM	–	CCOC(=O)c1c(-c2ccc(-c3ccccc3)cc2)csc1NC(=O)CNCCN(C)C
3.51 µM	3.14	CN1C(=O)/C(=C\c2ccc(-c3ccccc3)o2)SC1=S
> 30 µM (inactive)	–	CCOC(=O)C1=C(c2ccccc2)NC(N)=NC1c1ccc(OCc2ccc(C(=O)OC)cc2)cc1 (configuration not stated)
> 30 µM (inactive)	–	CC(=O)c1c(C)[nH]c(C(=O)NC2=NCCS2)c1C
> 30 µM (inactive)	–	CC(C)n1cc(CN2CCC(C(=O)Nc3cccc(-c4cccc(Cl)c4)c3)CC2)cn1
1.95 µM	1.75	N#CC(C#N)=c1ccc2c(c1)N1C(c3ccccc3)=CC(c3ccccc3)C3CCCCC31N=2 (configuration not stated)
> 30 µM (inactive)	–	O=[N+]([O-])c1ccc(/C=C/C2=NN(c3ccccc3)C(c3ccco3)C2)o1 (configuration not stated)

EC50	Ki [µM]	Compound
> 30 µM (inactive)	–	CC(C)N=c1cc2n(-c3ccc(Cl)cc3)c3ccccc3nc-2cc1Nc1ccc(Cl)cc1
3.48 µM	3.12	Cc1cc2ccccc2n1CCNC(=O)c1ccc(Br)o1
14.6 µM	13.1	Cc1cc2ccccc2n1CCNC(=O)c1cccs1
> 30 µM (inactive)	–	CNC(=O)C(=O)Nc1c(C)cc(C)cc1C
12.5 µM	–	C#CCOCCOCCOCCNc1nc(N2CCN(C(=O)[C@H](Cc3ccc(O)cc3)n3cc([C@@H](N)C(C)CC)nn3)CC2)nc(N2CCN(C(=O)[C@H](Cc3cc4ccccc4[nH]3)n3cc([C@@H](N)Cc4ccc(O)cc4)nn3)CC2)n1 (some centres not stated)
> 30 µM (inactive)	–	CCN(CC)CCOC(=O)c1ccc(N/C=C(/C#N)c2nc(-c3cccc(OC)c3)cs2)cc1
> 30 µM (inactive)	–	COc1cc(/C=N/NC(=O)c2cc3ccccc3cc2O)ccc1OCCN1CCCCC1
5.12 µM	–	CCc1ccc(-c2nn(-c3ccccc3)cc2CSC(=N)N)cc1
> 30 µM (inactive)	–	CCOc1ccc(C2=C/C(=C/c3cccnc3)C(=O)O2)cc1
> 30 µM (inactive)	–	CC(=O)Nc1ccc(OCC(O)Cn2c3ccccc3c3ccccc32)cc1 (configuration not stated)
2.24 µM	–	CCCCCCCCCC[N+](C)(C)CC/C=C1/c2ccccc2Sc2ccc(Cl)cc21
> 30 µM (inactive)	–	CCCCCCCCCCOC(=O)Cn1c(COc2ccc(OC)cc2)[n+](C)c2ccccc21
3.03 µM	2.71	CCCN1C(=O)/C(=C\C=C2/Sc3ccccc3N2CC)SC1=S
> 30 µM (inactive)	–	C#CCOCCOCCOCCNc1nc(N2CCN(C(=O)C(Cc3ccc(O)cc3)n3cc(C(N)CC(C)C)nn3)CC2)nc(N2CCN(C(=O)C(Cc3cc4ccccc4[nH]3)n3cc(C(N)C(C)CC)nn3)CC2)n1 (configuration not stated)
4.88 µM	4.36	CCN(CC)CCOC(=O)c1ccc(N/C=C(/C#N)c2nc(-c3cc4ccccc4oc3=O)cs2)cc1
> 30 µM (inactive)	–	O=C(CCCC(=O)N(CC(=O)NC1CCCC1)C1CCCC1)Nc1ccccn1
1.87 µM	1.68	O=C1Nc2ccc(Br)cc2/C1=N/N=C/C1=C(N2CCOCC2)C(=C\c2ccccc2)/CC1
> 30 µM (inactive)	–	CCCCCCCCCCOC(=O)Cn1c(COc2ccccc2C)[n+](C)c2ccccc21
14.4 µM	–	CCCCN(CC)CCNC(=O)c1cc2c(-c3ccc(Cl)cc3)nn(C)c2s1
> 30 µM (inactive)	–	C=CC#CC[N+]1(CC#Cc2ccccc2)CCOCC1
1.01 µM	–	C#CCOCCOCCOCCNc1nc(N2CCN(C(=O)[C@H](Cc3cc4ccccc4[nH]3)n3cc([C@@H](N)C(C)CC)nn3)CC2)nc(N2CCN(C(=O)[C@H](Cc3cc4ccccc4[nH]3)n3cc([C@@H](N)Cc4ccc(O)cc4)nn3)CC2)n1 (some centres not stated)
3.37 µM	–	CN(C)CCNc1ncnc2c1sc1nc(-c3ccccc3)c3c(c12)CCCC3
3.38 µM	3.02	CCN1C(c2ccccc2)=C(c2ccccc2)S/C1=C\C=C1/SC(=S)N(C)C1=O
> 30 µM (inactive)	–	CCCCCc1cc(=O)oc2c(C(CCN3CCCCC3)c3ccc4c(c3)OCO4)c(OC)cc(OC)c12 (configuration not stated)
2.69 µM	–	C#CCOCCOCCOCCNc1nc(N2CCN(C(=O)[C@H](Cc3cc4ccccc4[nH]3)n3cc([C@@H](N)C(C)CC)nn3)CC2)nc(N2CCN(C(=O)[C@H](Cc3cc4ccccc4[nH]3)n3cc([C@@H](N)CC(C)C)nn3)CC2)n1 (some centres not stated)
> 30 µM (inactive)	–	CN1CCN(CC(=O)N2CCn3c4c(c5cc(C6CCCCC6)ccc53)CCCC42)CC1 (configuration not stated)
> 30 µM (inactive)	–	Cc1ccnc(NC(=O)C2(c3cccs3)CCOCC2)c1

EC50	Ki [µM]	Compound
1.12 µM	1	CCCCn1c(O)c(/C=C/C=C/C=Nc2ccccc2)sc1=S
5.32 µM	4.76	COc1cccc(OC)c1-c1nn2c(-c3cc(-c4ccccc4)n[nH]3)nnc2s1
> 30 µM (inactive)	–	COc1ccc(C(CCNCc2ccc(OC(C)C)cc2)c2ccccc2OC)cc1 (configuration not stated)
1.88 µM	1.68	CCN1/C(=C/c2ccc3cc(C)cc(C)c3[n+]2CC)Sc2cc(C)ccc21
4.49 µM	4.01	CCC(/C=C1\Sc2ccc(OC)cc2N1CC)=C\c1sc2ccc(OC)cc2[n+]1CCCS(=O)(=O)[O-]
> 30 µM (inactive)	–	COc1cc(CNCCc2c[nH]c3ccccc23)ccc1OCc1ccccc1F
5.48 µM	–	CCc1ccc(Nc2n[n+](-c3ccccc3)c(-c3ccc(OCc4ccccc4)cc3)s2)cc1
> 30 µM (inactive)	–	COc1ccc(N2CC(C(=O)Nc3nnc(SCc4ccccn4)s3)CC2=O)cc1 (configuration not stated)
5.75 µM	–	S=C(Nc1cccc(Cl)c1)N(CCCN1CCCC1)Cc1cccn1Cc1ccc(Cl)cc1
> 30 µM (inactive)	–	C/C(=N\NC(=O)c1cc(O)cc(O)c1)c1ccc(NC(=O)Cc2ccccc2)cc1
5.13 µM	–	Cc1ccc(CN2CCSc3ccc(C(=O)NC4CCN(Cc5ccccc5)CC4)cc32)cc1
1.48 µM	–	COc1ccc(CNC[C@@H](CCCCN(C)Cc2ccc(OC)cc2)N2C[C@H](c3ccccc3)N(CCc3ccc(Cl)c(Cl)c3)C(=O)C2=O)cc1
0.14 µM	0.12	CCC(=C/c1sc2ccc3ccccc3c2[n+]1C)/C=C1\Sc2ccc3ccccc3c2N1C
2.63 µM	2.35	CCN1/C(=C/c2ccc3cc(C)ccc3[n+]2CC)Sc2cc(C)c(C)cc21
7.74 µM	–	C#CCOCCOCCOCCNc1nc(N2CCN(C(=O)[C@H]([C@@H](C)CC)n3cc([C@@H](N)CC(C)C)nn3)CC2)nc(N2CCN(C(=O)[C@H](Cc3cc4ccccc4[nH]3)n3cc([C@@H](N)CC(C)C)nn3)CC2)n1
0.34 µM	–	CCN1CCN(Cc2ccc(NC(=O)c3cc(NC(=O)C(=O)c4c[nH]c5ccccc45)cc(OC)c3)cc2C(F)(F)F)CC1
> 30 µM (inactive)	–	Cc1nc(N)sc1-c1csc(Nc2ncccn2)n1
5.81 µM	–	CCN(Cc1ccccc1)S(=O)(=O)c1ccc(C(=O)N(CCCN(C)C)c2nc3ccc(F)cc3s2)cc1
> 30 µM (inactive)	–	COc1ccc(-c2cc(C#N)nc(N3CCNCC3)n2)cc1
> 30 µM (inactive)	–	COc1ccc(NC(=O)N(Cc2cc3cc(C)ccc3[nH]c2=O)CC2CCCO2)cc1 (configuration not stated)
4.95 µM	4.43	CCNc1ccc2noc3c2c1C(=O)c1ccccc1-3
0.67 µM	0.6	CN(c1ccccc1)c1ccc(/C=c2\s/c(=C(/C#N)C(=O)C(C)(C)C)n(Cc3ccco3)c2=O)cc1
> 30 µM (inactive)	–	C#CCOCCOCCOCCNc1nc(N2CCN(C(=O)[C@H](Cc3cc4ccccc4[nH]3)n3cc([C@@H](N)CC(C)C)nn3)CC2)nc(N2CCN(C(=O)[C@H](Cc3cc4ccccc4[nH]3)n3cc([C@@H](N)CC(C)C)nn3)CC2)n1
> 30 µM (inactive)	–	CN1CCN(CC(O)COc2ccc(C34CC5CC(CC(C5)C3)C4)cc2)CC1 (configuration not stated)
0.67 µM	–	NC(=NCCCCCCN=C(N)/N=C(\N)Nc1ccc(Cl)cc1)/N=C(\N)Nc1ccc(Cl)cc1
4.09 µM	3.66	Cc1nn2c(N)csc2nc1=O
